Measured values reported in ChEMBL document CHEMBL4507262, “Data for DCP probe A-1596586” (2021).

Tests used:
[1] = molecular target: Eukaryotic translation initiation factor 2-alpha kinase 1 (Homo sapiens) (UniProt Q9BQI3); conditions: Compound concentration 1000.0 nM
[2] = molecular target: Mitogen-activated protein kinase kinase kinase kinase 4 (Homo sapiens) (UniProt O95819); conditions: Compound concentration 1000.0 nM
[3] = molecular target: T1, GABA-A receptor; anion channel (Rattus norvegicus) (UniProt O09028+P15431+P18506+P18508+P19969+P20236+P23574+P23576+P28471+P28473+P30191+P62813+P63079+P63138+Q91ZM7+Q9ES14); conditions: Compound concentration 10.0 uM
[4] = molecular target: Calcium/calmodulin-dependent protein kinase kinase 1 (Homo sapiens) (UniProt Q8N5S9); conditions: Compound concentration 1000.0 nM
[5] = molecular target: Tyrosine-protein kinase ZAP-70 (Homo sapiens) (UniProt P43403); conditions: Compound concentration 1000.0 nM
Sequence of Tyrosine-protein kinase ZAP-70 (Homo sapiens) (P43403 whole entry): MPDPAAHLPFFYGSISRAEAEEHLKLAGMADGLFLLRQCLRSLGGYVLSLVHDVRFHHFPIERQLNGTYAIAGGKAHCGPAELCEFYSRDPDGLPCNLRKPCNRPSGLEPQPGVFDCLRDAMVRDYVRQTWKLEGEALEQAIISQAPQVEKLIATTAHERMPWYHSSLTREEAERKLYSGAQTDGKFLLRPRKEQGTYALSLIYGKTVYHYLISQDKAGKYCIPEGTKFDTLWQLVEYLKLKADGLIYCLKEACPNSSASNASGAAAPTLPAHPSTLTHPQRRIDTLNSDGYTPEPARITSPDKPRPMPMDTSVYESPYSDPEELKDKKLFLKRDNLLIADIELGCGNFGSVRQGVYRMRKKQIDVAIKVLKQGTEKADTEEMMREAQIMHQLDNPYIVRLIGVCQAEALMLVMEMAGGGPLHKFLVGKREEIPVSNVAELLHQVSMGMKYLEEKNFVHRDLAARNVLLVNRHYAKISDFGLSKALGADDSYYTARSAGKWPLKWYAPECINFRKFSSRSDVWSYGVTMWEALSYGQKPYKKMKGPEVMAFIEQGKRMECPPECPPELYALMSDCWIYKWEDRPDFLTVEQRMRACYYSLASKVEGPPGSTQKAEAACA

[6] = molecular target: Beta-1 adrenergic receptor (Homo sapiens) (UniProt P08588); assay: Beta1 (h) Eurofins-Cerep binding assay; set-up: ligand concentration 0.3 nM; conditions: filed as agonist, Compound concentration 10.0 uM
Sequence of Beta-1 adrenergic receptor (Homo sapiens) (P08588 whole entry, looked up): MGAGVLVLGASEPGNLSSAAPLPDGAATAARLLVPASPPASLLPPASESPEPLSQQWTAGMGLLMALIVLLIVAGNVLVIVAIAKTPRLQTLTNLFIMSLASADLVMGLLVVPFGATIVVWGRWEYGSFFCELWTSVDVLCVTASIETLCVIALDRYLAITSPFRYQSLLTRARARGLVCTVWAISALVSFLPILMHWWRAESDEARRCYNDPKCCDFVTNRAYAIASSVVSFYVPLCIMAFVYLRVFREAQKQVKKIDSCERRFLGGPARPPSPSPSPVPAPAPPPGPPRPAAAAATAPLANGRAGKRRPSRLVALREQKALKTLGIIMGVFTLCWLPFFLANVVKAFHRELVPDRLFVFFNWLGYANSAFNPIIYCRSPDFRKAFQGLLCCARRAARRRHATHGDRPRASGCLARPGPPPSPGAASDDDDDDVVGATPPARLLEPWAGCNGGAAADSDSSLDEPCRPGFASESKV

[7] = molecular target: Inhibitor of nuclear factor kappa-B kinase subunit alpha (Homo sapiens) (UniProt O15111); conditions: Compound concentration 1000.0 nM
Sequence of Inhibitor of nuclear factor kappa-B kinase subunit alpha (Homo sapiens) (O15111 whole entry): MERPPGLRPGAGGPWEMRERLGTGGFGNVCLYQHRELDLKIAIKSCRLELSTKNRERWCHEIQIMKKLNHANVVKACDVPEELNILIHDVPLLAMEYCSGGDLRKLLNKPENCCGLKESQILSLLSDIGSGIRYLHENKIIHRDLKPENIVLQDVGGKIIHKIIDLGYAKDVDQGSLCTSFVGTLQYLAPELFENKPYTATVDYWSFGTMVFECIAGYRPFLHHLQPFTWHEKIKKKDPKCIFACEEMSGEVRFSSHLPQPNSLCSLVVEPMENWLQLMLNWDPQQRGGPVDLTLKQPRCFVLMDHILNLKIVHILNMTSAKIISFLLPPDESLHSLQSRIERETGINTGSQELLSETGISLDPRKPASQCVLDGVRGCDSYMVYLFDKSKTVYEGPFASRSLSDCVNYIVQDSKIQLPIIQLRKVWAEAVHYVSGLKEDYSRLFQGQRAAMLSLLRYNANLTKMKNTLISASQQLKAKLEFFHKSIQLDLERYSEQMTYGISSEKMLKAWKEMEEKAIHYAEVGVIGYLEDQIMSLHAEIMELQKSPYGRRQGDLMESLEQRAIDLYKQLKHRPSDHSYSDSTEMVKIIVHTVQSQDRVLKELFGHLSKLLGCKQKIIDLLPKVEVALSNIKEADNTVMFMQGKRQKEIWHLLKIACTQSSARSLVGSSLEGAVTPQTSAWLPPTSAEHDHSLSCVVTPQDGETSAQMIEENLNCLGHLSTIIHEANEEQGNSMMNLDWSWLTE

[8] = molecular target: Tyrosine-protein kinase receptor UFO (Homo sapiens) (UniProt P30530); conditions: Compound concentration 1000.0 nM
[9] = system: Epidermal growth factor receptor (Homo sapiens), P00533 [L858R]; conditions: Compound concentration 1000.0 nM
[10] = system: Phosphatidylinositol 4,5-bisphosphate 3-kinase catalytic subunit alpha isoform (Homo sapiens), P42336 [H1047Y]; conditions: Compound concentration 1000.0 nM
[11] = molecular target: Vasopressin V1a receptor (Homo sapiens) (UniProt P37288); assay: V1 a (h) Eurofins-Cerep binding assay; set-up: ligand concentration 0.3 nM; conditions: filed as agonist, Compound concentration 10.0 uM
[12] = molecular target: Mast/stem cell growth factor receptor Kit (Homo sapiens) (UniProt P10721); conditions: Compound concentration 1000.0 nM
Sequence of Mast/stem cell growth factor receptor Kit (Homo sapiens) (P10721 whole entry): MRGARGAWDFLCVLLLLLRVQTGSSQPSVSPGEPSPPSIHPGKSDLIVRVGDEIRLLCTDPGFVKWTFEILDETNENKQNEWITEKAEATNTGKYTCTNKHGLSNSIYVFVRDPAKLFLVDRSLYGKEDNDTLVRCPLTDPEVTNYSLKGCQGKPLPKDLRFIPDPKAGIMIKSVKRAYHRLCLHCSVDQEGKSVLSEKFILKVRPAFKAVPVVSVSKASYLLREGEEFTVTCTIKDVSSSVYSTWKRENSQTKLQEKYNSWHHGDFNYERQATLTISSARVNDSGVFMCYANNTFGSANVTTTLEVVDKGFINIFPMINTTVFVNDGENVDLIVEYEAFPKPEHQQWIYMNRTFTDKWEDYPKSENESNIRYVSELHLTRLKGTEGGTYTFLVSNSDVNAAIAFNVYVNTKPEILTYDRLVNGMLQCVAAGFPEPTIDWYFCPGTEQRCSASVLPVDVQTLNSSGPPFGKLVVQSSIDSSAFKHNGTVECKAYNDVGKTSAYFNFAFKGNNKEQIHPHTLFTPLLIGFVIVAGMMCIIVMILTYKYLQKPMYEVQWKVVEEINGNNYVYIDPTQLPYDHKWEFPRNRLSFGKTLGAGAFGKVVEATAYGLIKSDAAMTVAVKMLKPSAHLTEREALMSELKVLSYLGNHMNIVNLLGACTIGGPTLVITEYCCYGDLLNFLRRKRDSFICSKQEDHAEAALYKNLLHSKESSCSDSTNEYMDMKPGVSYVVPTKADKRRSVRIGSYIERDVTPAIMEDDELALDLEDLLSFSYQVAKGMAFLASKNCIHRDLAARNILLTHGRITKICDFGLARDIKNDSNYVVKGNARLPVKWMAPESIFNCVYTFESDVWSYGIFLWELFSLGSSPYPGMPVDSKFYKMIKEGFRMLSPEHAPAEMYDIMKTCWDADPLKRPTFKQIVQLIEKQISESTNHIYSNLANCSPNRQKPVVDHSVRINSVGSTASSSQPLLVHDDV

[13] = molecular target: Mitogen-activated protein kinase 7 (Homo sapiens) (UniProt Q13164); conditions: Compound concentration 1000.0 nM
[14] = molecular target: Proto-oncogene tyrosine-protein kinase Src (Homo sapiens) (UniProt P12931); conditions: Compound concentration 1000.0 nM
[15] = molecular target: Adenosine receptor A2a (Homo sapiens) (UniProt P29274); assay: A2A (h) Eurofins-Cerep binding assay; set-up: ligand concentration 6 nM; conditions: filed as agonist, Compound concentration 10.0 uM
[16] = molecular target: G protein-coupled receptor kinase 3 (Homo sapiens) (UniProt P35626); conditions: Compound concentration 1000.0 nM
[17] = molecular target: MAP kinase-interacting serine/threonine-protein kinase 1 (Homo sapiens) (UniProt Q9BUB5); conditions: Compound concentration 1000.0 nM
Sequence of MAP kinase-interacting serine/threonine-protein kinase 1 (Homo sapiens) (Q9BUB5 whole entry, looked up): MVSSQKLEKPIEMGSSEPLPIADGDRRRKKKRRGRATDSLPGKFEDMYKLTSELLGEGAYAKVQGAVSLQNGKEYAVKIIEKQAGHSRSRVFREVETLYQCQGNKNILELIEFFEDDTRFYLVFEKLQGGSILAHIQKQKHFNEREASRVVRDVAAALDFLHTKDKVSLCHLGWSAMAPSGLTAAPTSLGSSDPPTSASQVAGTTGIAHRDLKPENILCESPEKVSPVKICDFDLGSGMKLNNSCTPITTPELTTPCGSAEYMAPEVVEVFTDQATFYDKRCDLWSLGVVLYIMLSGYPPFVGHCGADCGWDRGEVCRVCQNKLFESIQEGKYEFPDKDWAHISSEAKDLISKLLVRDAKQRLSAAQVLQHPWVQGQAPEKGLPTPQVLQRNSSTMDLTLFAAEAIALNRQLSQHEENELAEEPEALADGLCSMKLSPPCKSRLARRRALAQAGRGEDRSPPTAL

[18] = molecular target: Receptor tyrosine-protein kinase erbB-3 (Homo sapiens) (UniProt P21860); conditions: Compound concentration 1000.0 nM
[19] = molecular target: Misshapen-like kinase 1 (Homo sapiens) (UniProt Q8N4C8); conditions: Compound concentration 1000.0 nM
[20] = molecular target: Calcium/calmodulin-dependent protein kinase kinase 2 (Homo sapiens) (UniProt Q96RR4); conditions: Compound concentration 1000.0 nM
Sequence of Calcium/calmodulin-dependent protein kinase kinase 2 (Homo sapiens) (Q96RR4 2-588 limits assumed): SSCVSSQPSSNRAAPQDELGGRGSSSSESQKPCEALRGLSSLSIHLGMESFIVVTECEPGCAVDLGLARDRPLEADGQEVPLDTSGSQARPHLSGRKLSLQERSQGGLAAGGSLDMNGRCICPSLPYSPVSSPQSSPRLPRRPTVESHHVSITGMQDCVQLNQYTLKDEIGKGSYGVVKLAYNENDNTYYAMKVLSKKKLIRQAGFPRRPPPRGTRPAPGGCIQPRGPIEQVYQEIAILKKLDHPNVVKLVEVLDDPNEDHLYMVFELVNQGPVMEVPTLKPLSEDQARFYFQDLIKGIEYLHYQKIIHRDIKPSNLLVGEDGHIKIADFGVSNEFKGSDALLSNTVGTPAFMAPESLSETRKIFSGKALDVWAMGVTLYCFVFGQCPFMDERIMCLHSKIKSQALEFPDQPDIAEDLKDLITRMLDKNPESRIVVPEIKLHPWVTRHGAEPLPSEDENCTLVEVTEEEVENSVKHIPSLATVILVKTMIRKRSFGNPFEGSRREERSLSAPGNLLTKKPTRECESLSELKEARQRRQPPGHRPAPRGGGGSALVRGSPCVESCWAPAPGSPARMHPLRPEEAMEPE

[21] = molecular target: Cystic fibrosis transmembrane conductance regulator (Homo sapiens, UniProt P13569); assay: CSE-HRP cell viability (Cell surface expression-horseradish peroxidase) assay
[22] = molecular target: Serine/threonine-protein kinase 3 (Homo sapiens) (UniProt Q13188); conditions: Compound concentration 1000.0 nM
[23] = system: Tyrosine-protein kinase ABL1 (Homo sapiens), P00519 [Q252H]; conditions: Compound concentration 1000.0 nM
[24] = molecular target: Non-receptor tyrosine-protein kinase TNK1 (Homo sapiens) (UniProt Q13470); conditions: Compound concentration 1000.0 nM
[25] = molecular target: Ephrin type-A receptor 8 (Homo sapiens) (UniProt P29322); conditions: Compound concentration 1000.0 nM
[26] = system: ALK tyrosine kinase receptor (Homo sapiens), Q9UM73 [C1156Y]; conditions: Compound concentration 1000.0 nM
[27] = molecular target: Interleukin-1 receptor-associated kinase 1 (Homo sapiens) (UniProt P51617); conditions: Compound concentration 1000.0 nM
[28] = molecular target: Phosphorylase b kinase gamma catalytic chain, skeletal muscle/heart isoform (Homo sapiens) (UniProt Q16816); conditions: Compound concentration 1000.0 nM
[29] = molecular target: T1, GABA-A receptor; anion channel (Rattus norvegicus); conditions: Compound concentration 10.0 uM; remark: listed apart in the source
[30] = molecular target: Cyclin-dependent kinase-like 3 (Homo sapiens) (UniProt Q8IVW4); conditions: Compound concentration 1000.0 nM
[31] = molecular target: Ephrin type-A receptor 1 (Homo sapiens) (UniProt P21709); conditions: Compound concentration 1000.0 nM
[32] = molecular target: Proto-oncogene tyrosine-protein kinase ROS (Homo sapiens) (UniProt P08922); conditions: Compound concentration 1000.0 nM
[33] = molecular target: Kappa-type opioid receptor (Homo sapiens) (UniProt P41145); conditions: Compound concentration 10.0 uM
[34] = molecular target: Serine/threonine-protein kinase NIM1 (Homo sapiens) (UniProt Q8IY84); conditions: Compound concentration 1000.0 nM
[35] = molecular target: L-type Ca2+ channel (dihydropyridine site) (Rattus norvegicus, UniProt P22002+P27732+Q02485); assay: Ca2+ channel (L, dihydropyridine site) Eurofins-Cerep binding assay; format: protein assay; set-up: incubation time 90 min, incubation temperature RT, ligand concentration 0.1 nM; conditions: rat cerebral cortex, probe [3H]nitrendipine (0.1 nM), compound concentration 10 uM, read-out: % Inhibition of Control Specific Binding (Mean n=2)
[36] = molecular target: Delta-type opioid receptor (Homo sapiens) (UniProt P41143); conditions: Compound concentration 10.0 uM
Sequence of Delta-type opioid receptor (Homo sapiens) (P41143 whole entry): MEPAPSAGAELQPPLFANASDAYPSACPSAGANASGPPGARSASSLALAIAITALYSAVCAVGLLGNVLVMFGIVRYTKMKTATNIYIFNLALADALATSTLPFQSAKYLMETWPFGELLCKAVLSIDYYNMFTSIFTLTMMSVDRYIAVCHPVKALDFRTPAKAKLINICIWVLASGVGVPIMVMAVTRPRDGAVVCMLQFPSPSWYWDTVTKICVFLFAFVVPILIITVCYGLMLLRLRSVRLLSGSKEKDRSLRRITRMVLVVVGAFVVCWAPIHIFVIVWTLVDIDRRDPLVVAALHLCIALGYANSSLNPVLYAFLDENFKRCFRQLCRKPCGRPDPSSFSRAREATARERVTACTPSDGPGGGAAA

[37] = molecular target: Serine/threonine-protein kinase ICK (Homo sapiens) (UniProt Q9UPZ9); conditions: Compound concentration 1000.0 nM
[38] = molecular target: Glutamate NMDA receptor (Rattus norvegicus) (UniProt P35439+Q00959+Q00960+Q00961+Q62645+Q8VHN2+Q9R1M7); assay: NMDA Eurofins-Cerep binding assay; format: protein-complex assay; set-up: ligand concentration 5 nM; conditions: filed as antagonist, Compound concentration 10.0 uM
[39] = molecular target: Cyclin-dependent kinase 8 (Homo sapiens) (UniProt P49336); conditions: Compound concentration 1000.0 nM
[40] = molecular target: Myotonin-protein kinase (Homo sapiens) (UniProt Q09013); conditions: Compound concentration 1000.0 nM
Sequence of Myotonin-protein kinase (Homo sapiens) (Q09013 whole entry): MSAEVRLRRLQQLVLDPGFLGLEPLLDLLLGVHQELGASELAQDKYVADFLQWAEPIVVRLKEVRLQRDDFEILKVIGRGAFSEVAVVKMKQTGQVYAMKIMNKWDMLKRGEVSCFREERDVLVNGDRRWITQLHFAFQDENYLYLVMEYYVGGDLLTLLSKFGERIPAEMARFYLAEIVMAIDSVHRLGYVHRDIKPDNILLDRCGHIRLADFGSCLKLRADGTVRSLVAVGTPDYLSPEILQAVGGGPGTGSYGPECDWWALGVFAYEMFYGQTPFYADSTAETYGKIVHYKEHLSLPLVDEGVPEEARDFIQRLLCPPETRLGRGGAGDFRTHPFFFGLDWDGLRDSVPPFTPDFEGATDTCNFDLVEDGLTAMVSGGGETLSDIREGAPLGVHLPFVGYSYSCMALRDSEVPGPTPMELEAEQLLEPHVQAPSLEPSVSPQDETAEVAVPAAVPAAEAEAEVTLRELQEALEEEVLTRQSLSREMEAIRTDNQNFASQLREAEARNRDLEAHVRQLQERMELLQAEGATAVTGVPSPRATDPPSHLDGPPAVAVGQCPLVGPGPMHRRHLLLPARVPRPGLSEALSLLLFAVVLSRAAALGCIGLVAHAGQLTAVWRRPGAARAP

Row | Compound | residual activity [1] [%] | residual activity [2] [%] | inhibition [3] [%] | residual activity [4] [%] | residual activity [5] [%] | % Inhibition of Control Specific Binding (Mean n=2) [6] [%] | residual activity [7] [%] | residual activity [8] [%] | residual activity [9] [%] | residual activity [10] [%] | % Inhibition of Control Specific Binding (Mean n=2) [11] [%] | residual activity [12] [%] | residual activity [13] [%] | residual activity [14] [%] | % Inhibition of Control Specific Binding (Mean n=2) [15] [%] | residual activity [16] [%] | residual activity [17] [%] | residual activity [18] [%] | residual activity [19] [%] | residual activity [20] [%] | also measured
1 | COc1ccc2c(c1)O[C@H](c1ccc(OC)c(OC)c1)C[C@@H]2NC(=O)C1(c2ccc3c(c2)OC(F)(F)O3)CC1 [A-1596584] | 100 | 100 | -8.42 | 100 | 93 | -2.1 | 89 | 100 | 100 | 100 | 5.9 | 99 | 100 | 100 | 7.8 | 100 | 81 | 92 | 100 | 100 | EC50 [21]: > 20 µM (not active); residual activity [22]: 100%; residual activity [23]: 100%; residual activity [24]: 97%; residual activity [25]: 100%; residual activity [26]: 100%; residual activity [27]: 93%; residual activity [28]: 100%; inhibition [29]: 11.1%; residual activity [30]: 97%; residual activity [31]: 88%; residual activity [32]: 73%; inhibition [33]: 27.4%; residual activity [34]: 84%; inhibition at 90 min, 10 µM [35]: 2.6%; inhibition [36]: -9.84%; residual activity [37]: 80%; % Inhibition of Control Specific Binding (Mean n=2) [38]: 1.3%; residual activity [39]: 100%; residual activity [40]: 94%
2 | COc1ccc2c(c1)O[C@@H](c1ccc(OC)c(OC)c1)C[C@H]2NC(=O)C1(c2ccc3c(c2)OC(F)(F)O3)CC1 [A-1596586] | 98 | 100 | 11.1 | 89 | 71 | 3.1 | 95 | 100 | 97 | 77 | 4.7 | 88 | 100 | 100 | 11.2 | 75 | 78 | 86 | 77 | 96 | EC50 [21]: > 20 µM (not active); residual activity [22]: 96%; residual activity [23]: 93%; residual activity [24]: 100%; residual activity [25]: 82%; residual activity [26]: 84%; residual activity [27]: 80%; residual activity [28]: 100%; inhibition [29]: 2.64%; residual activity [30]: 94%; residual activity [31]: 93%; residual activity [32]: 97%; inhibition [33]: 34.1%; residual activity [34]: 94%; inhibition at 90 min, 10 µM [35]: 34.6%; inhibition [36]: -7.29%; residual activity [37]: 74%; % Inhibition of Control Specific Binding (Mean n=2) [38]: 8.7%; residual activity [39]: 100%; residual activity [40]: 93%
